Test results reported in patent US20070287699A1, “ANTIVIRAL AGENTS” (ViroBay, Inc., priority 2006, published 2007).

test system: HCV replicon RNA replication in human Huh7 hepatoma cells; experiment: HCV replicon assay (activity levels from either or both of HCV replicon assay 1, Huh7/Clone A RT-qPCR, and assay 2, Huh7 ET luc-ubi-neo/ET); assay type: cell-based, Hepatitis C virus (HCV); details: Hepatitis C virus, Huh-7, either or both HCV replicon assays: Huh7/Clone A, 48 hours, 72 hours, Luc activity or RT-PCR, read-out: inhibit HCV replication at IC50 levels or estimated IC50 levels
From the text: The HCV replicon assay is a cell-culture system that mimics in vivo HCV replication and provides a system to study HCV replication in vitro. It was created by transfecting cloned viral RNA derived from a consensus HCV genomic sequence into human Huh7 hepatoma cells that are semi-permissive for viral RNA production (Lohmann V., Korner F., Koch J.-O., Herian U., Theilmann L. and Bartenschlager R. (1999). Replication of subgenomic Hepatitis C virus RNAs in a hepatoma cell line. Science 285, 110-113 and Blight K. J., Kolykhalov A. A. and Rice C. M. (2000). Efficient initiation of HCV RNA Replication in cell culture. Science 290, […]). These transfected cell lines contain a subgenomic HCV RNA genome that includes (1) the HCV 5′NTR fused to 12 amino acids of the capsid coding region, (2) the neomycin phosphotransferase gene (Neo) as a selectable marker, (3) the internal ribosome entry site (IRES) from encephalomyocarditis virus (EMCV) that directs translation of HCV non-structural proteins (variously NS2 or NS3 to NS5B), and (4) the 3′ NTR. Replicon-containing cells autonomously and persistently replicate HCV RNA that can be measured quantitatively by real-time qPCR. Therefore, the replicon system facilitates quantitative assessment of anti-viral activity by monitoring changes in HCV RNA replication in a cell-based assay.
HCV replicon-containing cells (Huh7/Clone A) were routinely maintained in Clone A growth medium (DMEM medium [Invitrogen], supplemented with 10% Fetal Bovine Serum, 1% Non Essential Amino Acids and 1 g/L G418). Test compounds were dissolved in dimethyl sulfoxide (DMSO) to make 200× stock solutions for all doses prior to treatment.
For the HCV replicon assay, Huh7/Clone A cells were trypsinized from culture flasks, seeded in 1 ml of Clone A growth medium without G418 at 4×10^4 cells per well in 24-well plates and incubated at 37° C. in a humidified CO2 (5%) incubator overnight. Following overnight incubation, compound solutions were added into wells in the same volume (5 μl of 200× compound stock per well) to give a final DMSO concentration of 0.5%. Three wells on each plate supplemented with 5 μl of DMSO served as untreated controls. For IC50 determinations, compounds were tested at 7 serial dilutions in triplicates from the starting stock solutions. The plates were incubated at 37° C. for 48 hours. After incubation, cells were harvested, transferred to 96-well plates, and subjected to total RNA extraction using the RNA Isolation Kit (RNeasy 96, Qiagen) according to the protocol described by the manufacture's RNeasy 96 Handbook (Qiagen).
Total RNA eluted in 130 μl of RNase-free dH2O was quantitated by the RiboGreen Assay according to the supplier's protocol (Molecular Probe). Briefly, 5 μl of RNA samples were aliquoted in duplicate to a 96-well black microplate and a 96-well TaqMan Optical plate. RNA samples in the black microplate were mixed with 95 μl of diluted RiboGreen:reagent (1:250 dilution in TE buffer) and sample fluorescence was measured using a fluorescence microplate reader at standard fluorescein wavelengths (excitation ˜480 nm, emission ˜520 nm). Ribosomal RNA (Molecular Probe) was used as standard.
TaqMan quantitative PCR (RT-qPCR) was used to quantitate the amount of HCV replicon RNA in each sample. The RT-qPCR reactions were performed in 25 μl on an ABI PRISM 7900 HT Sequence Detection System (Applied Biosystems). The reaction mixture contained 5 μl of total RNA (10-100 ng), 1× TaqMan Buffer A (Applied Biosystems), 5.5 mM MgCl2, 1.2 mM dNTP mix, 0.625 U of AmpliTaq Gold (Applied Biosystems), 5 U of MMLV reverse transcriptase (Promega), 5 U of rRNasin (Promega), 300 nM each of the forward and reverse primers, and 100 nM TaqMan MGB probe. Primers and probe were designed to hybridize to a portion of the neomycin resistance gene (neo) in the replicon and the sequences are as follows: forward primer 5′-GGCTACCTGCCCATTCGA-3′; reverse primer 5′-CCGGCTTCCATCCGAGTAC-3′; MGB probe 5′-CCACCAAGCGAAACA-3′. […]

COc1cc2c(=O)c(-c3noc(Cc4ccccc4)n3)cn(Cc3ccc(Cl)cc3)c2cc1OC [Compound 1, 3-(5-Benzyl-[1,2,4]oxadiazol-3-yl)-1-(4-chloro-benzyl)-6,7-dimethoxy-1H-quinolin-4-one] and COc1cc2c(=O)c(-c3noc(Cc4ccc(C)cc4)n3)cn(Cc3ccc(Cl)cc3)c2cc1OC [Compound 4, 1-(4-chloro-benzyl)-6,7-dimethoxy-3-[5-(4-methyl-benzyl)-[1,2,4]oxadiazol-3-yl]-1H-quinolin-4-one] cannot be ordered by IC50: > 10 µM for the first, > 10 µM for the second.

COc1cc2c(=O)c(-c3noc(C4(c5ccccc5)CC4)n3)cn(Cc3ccc(Cl)cc3)c2cc1OC [Compound 2, 1-(4-chloro-benzyl)-6,7-dimethoxy-3-[5-(1-phenyl-cyclopropyl)-[1,2,4]oxadiazol-3-yl]-1H-quinolin-4-one] and COc1cc2c(=O)c(-c3noc(Cc4ccccn4)n3)cn(Cc3ccc(Cl)cc3)c2cc1OC [Compound 3, 1-(4-chloro-benzyl)-6,7-dimethoxy-3-(5-pyridin-2-ylmethyl-[1,2,4]oxadiazol-3-yl)-1H-quinolin-4-one] cannot be ordered by IC50: > 10 µM for the first, > 10 µM for the second.

COc1cc2c(=O)c(-c3noc(CC4CCCCC4)n3)cn(Cc3ccc(Cl)cc3)c2cc1OC [Compound 5, 1-(4-chloro-benzyl)-3-(5-cyclohexylmethyl-[1,2,4]oxadiazol-3-yl)-6,7-dimethoxy-1H-quinolin-4-one] and COc1cc2c(=O)c(-c3noc(CC4CCCC4)n3)cn(Cc3ccc(Cl)cc3)c2cc1OC [Compound 7, 1-(4-chloro-benzyl)-3-(5-cyclopentylmethyl-[1,2,4]oxadiazol-3-yl)-6,7-dimethoxy-1H-quinolin-4-one] cannot be ordered by IC50: > 10 µM for the first, > 10 µM for the second.

Compared with COc1cc2c(=O)c(-c3noc(Cc4ccsc4)n3)cn(Cc3ccc(Cl)cc3)c2cc1OC [Compound 6, 1-(4-chloro-benzyl)-6,7-dimethoxy-3-(5-thiophen-3-ylmethyl-[1,2,4]oxadiazol-3-yl)-1H-quinolin-4-one], COc1ccc2c(c1)c(=O)c(-c1noc(Cc3ccccc3)n1)cn2Cc1ccc(Cl)cc1 [Compound 11, 3-(5-benzyl-[1,2,4]oxadiazol-3-yl)-1-(4-chloro-benzyl)-6-methoxy-1H-quinolin-4-one] is higher in IC50: < 10 µM for the first, > 10 µM for the second.

Compared with CN1CCN(c2cc3c(cc2F)c(=O)c(-c2noc(Cc4ccccc4)n2)cn3Cc2ccc(Cl)cc2)CC1 [Compound 8, 3-(5-benzyl-[1,2,4]oxadiazol-3-yl)-1-(4-chloro-benzyl)-6-fluoro-7-(4-methyl-piperazin-1-yl)-1H-quinolin-4-one], CN1CCN(c2cc3c(cc2F)c(=O)c(-c2noc(Cc4ccccc4CC(=O)O)n2)cn3Cc2ccc(Cl)cc2)CC1 [Compound 22, (2-{3-[1-(4-chloro-benzyl)-6-fluoro-7-(4-methyl-piperazin-1-yl)-4-oxo-1,4-dihydro-quinolin-3-yl]-[1,2,4]oxadiazol-5-ylmethyl}-phenyl)-acetic acid] is higher in IC50: < 2 µM for the first, > 10 µM for the second.

CN1CCN(c2cc3c(cc2F)c(=O)c(-c2noc(Cc4ccccc4)n2)cn3CC2CCCCC2)CC1 [Compound 9, 3-(5-benzyl-[1,2,4]oxadiazol-3-yl)-1-cyclohexylmethyl-6-fluoro-7-(4-methyl-piperazin-1-yl)-1H-quinolin-4-one] and Cc1cccc(Cc2nc(-c3cn(CC4CCCCC4)c4cc(N5CCN(C)CC5)c(F)cc4c3=O)no2)c1 [Compound 19, 1-cyclohexylmethyl-6-fluoro-3-[5-(3-methyl-benzyl)-[1,2,4]oxadiazol-3-yl]-7-(4-methyl-piperazin-1-yl)-1H-quinolin-4-one] cannot be ordered by IC50: < 2 µM for the first, < 10 µM for the second.

COc1ccc2c(c1)c(=O)c(-c1noc(Cc3ccccc3)n1)cn2CC1CCCCC1 [Compound 10, 3-(5-benzyl-[1,2,4]oxadiazol-3-yl)-1-cyclohexylmethyl-6-methoxy-1H-quinolin-4-one] and O=c1c(-c2noc(Cc3ccccc3)n2)cn(CC2CCCCC2)c2ccc(O)cc12 [Compound 24, 3-(5-benzyl-[1,2,4]oxadiazol-3-yl)-1-cyclohexylmethyl-6-hydroxy-1H-quinolin-4-one] cannot be ordered by IC50: > 10 µM for the first, > 10 µM for the second.

First: O=c1c(-c2noc(Cc3ccccc3)n2)cn(Cc2ccc(Cl)cc2)c2ccc(O)cc12 [Compound 12, 3-(5-benzyl-[1,2,4]oxadiazol-3-yl)-1-(4-chloro-benzyl)-6-hydroxy-1H-quinolin-4-one]
Second: CN1CCN(c2cc3c(cc2F)c(=O)c(-c2noc(CC(C)(C)C)n2)cn3Cc2ccc(Cl)cc2)CC1 [Compound 21, 1-(4-chloro-benzyl)-3-[5-(2,2-dimethyl-propyl)-[1,2,4]oxadiazol-3-yl]-6-fluoro-7-(4-methyl-piperazin-1-yl)-1H-quinolin-4-one]
The IC50 of the first is lower: < 10 µM for the first, > 10 µM for the second. The first is the more potent here.

Compared with CC(C)Cc1nc(-c2cn(CC3CCCCC3)c3cc(N4CCN(C)CC4)c(F)cc3c2=O)no1 [Compound 13, 1-cyclohexylmethyl-6-fluoro-3-(5-isobutyl-[1,2,4]oxadiazol-3-yl)-7-(4-methyl-piperazin-1-yl)-1H-quinolin-4-one], CN1CCN(c2cc3c(cc2F)c(=O)c(-c2noc(CC4CC4)n2)cn3CC2CCCCC2)CC1 [Compound 14, 1-cyclohexylmethyl-3-(5-cyclopropylmethyl-[1,2,4]oxadiazol-3-yl)-6-fluoro-7-(4-methyl-piperazin-1-yl)-1H-quinolin-4-one] is lower in IC50: > 10 µM for the first, < 10 µM for the second. The second is the more potent here.

CN1CCN(c2cc3c(cc2F)c(=O)c(-c2noc(CC4CCCC4)n2)cn3CC2CCCCC2)CC1 [Compound 15, 1-cyclohexylmethyl-3-(5-cyclopentylmethyl-[1,2,4]oxadiazol-3-yl)-6-fluoro-7-(4-methyl-piperazin-1-yl)-1H-quinolin-4-one] and Cc1ccccc1Cc1nc(-c2cn(CC3CCCCC3)c3cc(N4CCN(C)CC4)c(F)cc3c2=O)no1 [Compound 20, 1-cyclohexylmethyl-6-fluoro-3-[5-(2-methyl-benzyl)-[1,2,4]oxadiazol-3-yl]-7-(4-methyl-piperazin-1-yl)-1H-quinolin-4-one] cannot be ordered by IC50: < 10 µM for the first, < 10 µM for the second.

CN1CCN(c2cc3c(cc2F)c(=O)c(-c2noc(CC4CCCC4)n2)cn3Cc2ccc(C(F)(F)F)cc2F)CC1 [Compound 17, 3-(5-cyclopentylmethyl-[1,2,4]oxadiazol-3-yl)-6-fluoro-1-(2-fluoro-4-trifluoromethyl-benzyl)-7-(4-methyl-piperazin-1-yl)-1H-quinolin-4-one] and CN1CCN(c2cc3c(cc2F)c(=O)c(-c2noc(Cc4ccc(F)cc4)n2)cn3Cc2ccc(C(F)(F)F)cc2F)CC1 [Compound 23, 6-fluoro-3-[5-(4-fluoro-benzyl)-[1,2,4]oxadiazol-3-yl]-1-(2-fluoro-4-trifluoromethyl-benzyl)-7-(4-methyl-piperazin-1-yl)-1H-quinolin-4-one] cannot be ordered by IC50: < 2 µM for the first, < 2 µM for the second.

same assay, conditions: either or both HCV replicon assays: Huh7/Clone A, 48 hours, 72 hours, Luc activity or RT-PCR, read-out: inhibit HCV replication at IC50 levels or estimated IC50 levels

CN1CCN(c2cc3c(cc2F)c(=O)c(-c2noc(Cc4ccccc4)n2)cn3Cc2ccc(C(F)(F)F)cc2F)CC1 [Compound 16, 3-(5-benzyl-[1,2,4]oxadiazol-3-yl)-6-fluoro-1-(2-fluoro-4-trifluoromethyl-benzyl)-7-(4-methyl-piperazin-1-yl)-1H-quinolin-4-one] was tested, and the IC50 was < 0.5 µM.
